Results on one molecule are retold here after patent publication US20150031760A1, “PHARMACEUTICAL COMPOSITION FOR PREVENTING OR TREATING NERVOUS SYSTEM DISORDERS COMPRISING SULFURETIN OR PHARMACEUTICALLY ACCEPTABLE SALT THEREOF” (Research and Business Foundation SUNGKYUNKWAN UNIVERSITY, priority 2010, published 2015).

Test [1] can be described thus: Free radical scavenging ability (antioxidant effect), DPPH test. The format is biochemical. As to conditions: 30 minutes. The method, then:
2,2-diphenyl-1-picrylhydrazyl (DPPH) was dissolved in 99.5% ethanol to a concentration of 0.1 mM. Sulfuretin was dissolved and diluted in ethanol to concentrations of 0.1, 1, 5, 10, 25, 50 and 100 μg/ml. 10 μl of the sample was added to 90 μl of DPPH and admixed several times with a pipette, and the mixture was incubated at room temperature for 30 minutes, and the absorbance at 517 nm was measured.

For test [2], the system named is PC12 cells. Nature of the test: MTT (cell viability) test, corticosterone-induced cell death in PC12 cells. Type of test: cell-based. As to conditions: Rattus norvegicus. The method, then: For the experiment shown in FIG. 3, PC12 cells were cultured in DMEM medium (Hyclone, Thermo, USA) containing 10% FBS, 5% horse serum and antibiotics (Gibco-BRL, USA). […] The concentration of corticosterone was determined to be 400 μM after evaluation of cell viability.

Test [3] concerns SH-SY5Y cells. Nature of the test: LDH secretion (cytotoxicity) test. Type of test: cell-based, human. The method, then:
The incubator was maintained at a temperature of 37° C., and a mixed gas of 95% air and 5% CO2 was continuously supplied thereto to provide suitable conditions for cell culture. The cells were cultured in a 6-well plate or a 96-well plate at each of densities of 1×10^6 and 2×10^4 cells/well 24 hours before the experiment. […] Sulfuretin was used in ethanol and used at a final concentration of 0.1% or less.
To measure LDH secretion (cytotoxicity), an LDH cytotoxicity assay kit was used. 50 μl of the medium was taken from each well of the 96-well plate (in which the cells have been cultured) and dispensed into each well of a fresh 96-well plate, and 50 μl of a reaction reagent was added to each well, after which the plate was shielded from light. The plate was incubated in an incubator for 30 minutes, and the UV absorbance at 490 nm was measured using a microplate reader (Molecular device, USA).
The measured absorbance was substituted into the following equation to calculate LDH secretion:
LDH secretion (%)=(LDH secretion O.D. in medium/total LDH secretion O.D.)×100

For test [4], the system named is SH-SY5Y cells. Nature of the test: LDH assay, amyloid beta25-35-induced cytotoxicity. Type of test: cell-based, human. As to conditions: pretreatment with sulfuretin at 2.5, 5, 10 and 20 μM; 20 μM amyloid beta25-35 for 24 h (p<0.001).
The subject of test [5] is β-CTF. The test is described as follows: Western blot, β-CTF level. The format is cell-based, human. As to conditions: Swedish APP mutant SH-SY5Y cells; sulfuretin 2.5, 5, 10 and 20 μM for 24 h; dose-dependent (p<0.001). On the procedure:
For the experiments shown in FIGS. 11 to 13, SH-SY5Y and stable swedish APP mutant SH-SY5Y cells were grown in DMEM supplemented with 10% heat-inactivated FBS and 0.1% penicillin/streptomycin at 37° C. in a humidified atmosphere of 5% CO2 and 95% air. Cells were fed every three days and sub-cultured once they reached 80-90% confluency in […] cell culture dishes. Amyloid beta25-35 was prepared as a 20 mM stock immediately before use and diluted in PBS to the indicated final concentration. Prior to use, amyloid beta25-35 was dissolved in sterilized distilled water and was aggregated at 37° C. for five days. The test compounds were dissolved in DMSO and the stock solutions were added directly to the culture media to a final concentration of 0.1% (v/v) DMSO.
SH-SY5Y and stable swedish APP mutant SH-SY5Y cells (1×10^6 cells/well in 6-well plates) were incubated at 37° C. with or without 20 μM amyloid beta 25-35 for 6 or 24 h, with or without sulfuretin pretreatment, and then washed and harvested with ice-cold PBS and centrifuged at 400×g for 3 minutes. […] The protein concentration was determined using a protein assay kit (Thermo Scientific). […] Protein bands were quantified by densitometric analysis using Image Gauge 4.0 software (Fujifilm, Stamford, Conn., USA). […]

Take `O=C1/C(=C/c2ccc(O)c(O)c2)Oc2cc(O)ccc21` [sulfuretin]: the “free radical scavenging ability (inhibition)” value is on record as no less than 10% in test [1] (sulfuretin 0.1 μg/ml); no less than 18% in test [1] (sulfuretin 1 μg/ml); no less than 58% in test [1] (sulfuretin 5 μg/ml); no less than 70% in test [1] (sulfuretin 10 μg/ml); no less than 71% in test [1] (sulfuretin 25 μg/ml); no less than 73% in test [1] (sulfuretin 50 μg/ml). Besides, the “free radical scavenging ability (inhibition)” value in test [1] (sulfuretin 100 μg/ml) is given as no less than 75%. In addition, the viability at 0.1 µg/mL in test [2] (PC-12, read-out: cell viability) was no less than 52%. The viability at 0.5 µg/mL in test [2] (PC-12, corticosterone-induced cell death, sulfuretin 0.5 μg/ml) was no less than 55%. For the same molecule, the viability at 1 µg/mL in test [2] (PC-12, corticosterone-induced cell death, sulfuretin 1 μg/ml) is no less than 72%. This molecule also had a viability at 5 µg/mL in test [2] (PC-12, corticosterone-induced cell death, sulfuretin 5 μg/ml) of no less than 90%. For the same molecule, the LDH secretion is reported as no more than 12% in test [3] (beta-amyloid-induced, sulfuretin 0.1 μg/ml); no more than 11% in test [3] (beta-amyloid-induced, sulfuretin 0.5 μg/ml); no more than 11% in test [3] (beta-amyloid-induced, sulfuretin 1 μg/ml); no more than 9% in test [3] (beta-amyloid-induced, sulfuretin 5 μg/ml); no more than 77% in test [3] (hydrogen peroxide-induced, sulfuretin 0.1 μg/ml); no more than 56% in test [3] (hydrogen peroxide-induced, sulfuretin 0.5 μg/ml). For the same molecule, the LDH secretion in test [3] (hydrogen peroxide-induced, sulfuretin 1 μg/ml) is reported as no more than 33%; in test [3] (hydrogen peroxide-induced, sulfuretin 5 μg/ml), no more than 39%. Further, in test [4], the “LDH activity (LDH release)” value was “significantly decreased”. For the same molecule, the β-CTF level result in test [5] was “significantly inhibited”.
